ChEMBL document CHEMBL1134220, “The synthesis of beta-peptides containing guanidino groups” (Bioorg Med Chem Lett, 2001)

Assay: pKa was determined
Assay type: physicochemical

N=C(N)N [GUANIDINE]
pKa: 13.5
